Test results: publication PMC8001000, “Pitfalls in the Immunochemical Determination of β-Lactam Antibiotics in Water” (Antibiotics, 2021)
Where two headings read alike, the source gives them in different places.

Columns and labels:
[1] = system: monoclonal mouse anti-AMX antibody A1463 (clone 1.BB.832); assay: indirect competitive ELISA (calibration curves of β-lactams and hydrolysis products); assay type: binding; conditions: for IC50: read-out: IC50 (ELISA calibration curve); for reduction of LOD by hydrolysis: after hydrolysis
Method: For the preparation of standards (calibrators), stock solutions of each compound with a mass concentration of approximately 1 g/L were prepared gravimetrically by weighing the respective compound and amount of solvent. Solvents for these stock solutions were ethanol for amoxicillin piperazine-2,5-dione and 3-(4-hydroxyphenyl)pyrazin-2-ol, or Milli-Q water for all other compounds. Standard solutions of each compound were prepared volumetrically by serial dilution of the respective stock solution in Milli-Q water. All standards and stock solutions were stored at 4 °C in the amber glass vials.
(§1) For hydrolysis, standards and samples were diluted in 0.1 M sodium hydroxide solution (1:1) the day before analysis in the assay, i.e., the day of coating (see below), and stored at 4 °C until the next day. Samples for reference analysis without hydrolysis were diluted in Milli-Q water (1:1) prior to analysis.
Each cavity of a 96-well microplate was coated with AMX-HSA (or alternatively AMX-BSA) in PBS (47.619 ng/L, 200 µL/well) and incubated for 18 h at RT with shaking at 750 rpm. Afterwards the plate was washed three times with washing buffer (1:60 dilution of washing buffer 60x in Milli-Q water) and the cavities were blocked with 0.1% (w/v) casein in PBS (200 µL/well) for 1 h at 750 rpm and RT. After repeated washing, standards/samples (100 µL/well) and primary antibody (dilution 1:20,000 in Tris for preliminary and cross-reactivity studies, in sample buffer pH 7.6 for sample analysis or in sample buffer pH 8.5 for reference analysis for degree of hydrolysis; 100 µL/well) were added and incubated for 1 h at 750 rpm and RT. Following another washing step, the plate was incubated with secondary antibody (95.238 ng/L, 200 µL/well) for 1 h at 750 rpm at RT. After final washing, cavities were filled with freshly prepared substrate solution (22 mL citrate buffer, 8.5 µL hydrogen peroxide solution, 550 µL TMB stock solution; 200 µL/well) and shaken for 10 min (preliminary and cross-reactivity studies) or 20 min (sample analysis, degree of hydrolysis) at 750 rpm for blue color development. […] Optical density was read at RT at a wavelength of 450 nm with reference at 620 nm. Data points were plotted in Origin® 2019 (OriginLab, Northampton, MA, USA), calibration curves were obtained by fitting a four-parameter logistic function to the measured data points and sample concentrations were determined by correlating concentration values of hydrolyzed standards with O.D. values of hydrolyzed and non-hydrolyzed samples. Each standard (8 per plate) and sample (24 per plate) was analyzed in triplicate with random distribution across the plate to reduce edge effects.

[2] = hydrolysis of AMX in standard solutions and water samples, followed by ELISA; assay type: physicochemical; conditions: for reaction time after which no further shift in the calibration curve was observable (hydrolysis): 0.1 M NaOH
Method: While developing and optimizing an indirect competitive ELISA for the determination of AMX, we observed a significant shift in the calibration curves obtained for differently aged standard solutions (calibrators) of AMX in water. […] This shift reached its end point after two months of storage at 4 °C and could be ascribed to hydrolysis of the parent drug by hydrolyzing standard solutions of AMX in 0.1 M NaOH, which yielded a similar calibration curve in the ELISA (see Figure 2).
In order to examine the degree of hydrolysis of AMX in these samples, a parallel analysis in the ELISA without pretreatment with 0.1 M NaOH was carried out and concentration values determined with and without hydrolysis were compared. […] Because of the antibody’s lower affinity towards unhydrolyzed AMX (higher IC50), higher O.D. values are found which correlate with lower concentration values in the calibration curve. This was the case for all of the tested mineral waters after 20 h. Contrarily, for tap water samples (P1–P4) the analysis without hydrolysis led to higher concentration values than the assay featuring hydrolysis, implying that hydrolysis of AMX had already occurred in these samples. […] The reason for that may lie in general properties of tap water containing particles or metal ions, e.g., Cu^2+, which can serve as catalysts for AMX hydrolysis. Furthermore, the storage of the water samples might have an effect as tap water for sample preparation was collected and stored in a glass bottle whereas mineral water samples were taken directly from plastic bottles. Anyhow, the influence of the pH value of the water can be ruled out since the values were within a range from 6.6 to 8.0 and no general trend was observable. The same holds true for ionic constituents (see Supplementary Table S1).
as §1

[3] = non-hydrolyzed standard solutions (freshly prepared / before hydrolysis; pure compounds)
[4] = standards after alkaline hydrolysis (0.1 M NaOH, 24 h at 4 °C)

Structure (SMILES) | IC50 [1, 3] [nM] | IC50 [1, 4] [nM] | other results
CC1(C)S[C@@H]2[C@H](NC(=O)[C@H](N)c3ccccc3)C(=O)N2[C@H]1C(=O)O [AMP, ampicillin] | 1350 ± 130 | 36.2 ± 3.7 | 
CC1(C)S[C@@H]2[C@H](NC(=O)[C@H](N)c3ccc(O)cc3)C(=O)N2[C@H]1C(=O)O [AMX, amoxicillin] | 1470 ± 120 | 38.1 ± 3.6 | IC50 ([1]; standard solutions aged for 2 months at 4 °C in water): 52.2 ± 4.4 nM; reaction time after which no further shift in the calibration curve was observable (hydrolysis) ([2]; pH 12.5, 4 °C): 18 h; reaction time after which no further shift in the calibration curve was observable (hydrolysis) ([2]; pH 12.5, RT): 3 h; rate of hydrolysis in drinking water samples ([2]; spiked tap water vs bottled mineral water, after 20 h): much faster in tap water than in bottled mineral water; storage time until shift of calibration curve reached its end point (hydrolysis) ([2]; standard solutions in water, storage at 4 °C): two
CC1(C)S[C@@H]2[C@H](NC(=O)C(C(=O)O)c3ccccc3)C(=O)N2[C@H]1C(=O)O (some centres unmarked) [CRB, carbenicillin] | 11 ± 0.4 | 3.8 ± 0.5 | 
CC1(C)S[C@@H]2[C@H](NC(=O)Cc3ccccc3)C(=O)N2[C@H]1C(=O)O [PenG, penicillin G] | 700 ± 70 | 11.1 ± 1.7 | reduction of LOD by hydrolysis [1]: 85%
CC1(C)S[C@@H]2[C@H](NC(=O)COc3ccccc3)C(=O)N2[C@H]1C(=O)O [PenV, penicillin V] | 702 ± 66 | 11.6 ± 2.5 | reduction of LOD by hydrolysis [1]: 85%

Second part, led by results:

IC50 [1, 3] [nM] | IC50 [1, 4] [nM] | Structure (SMILES) | other results
7.48 ± 0.58 |  | CC1(C)SC(C(NC(=O)[C@H](N)c2ccc(O)cc2)C(=O)O)NC1C(=O)O (some centres unmarked) [HP1, amoxicilloic acid] | fold higher affinity of the antibody than to the parent drug AMX ([1]; HP1 vs AMX): approximately 200 fold
28700 |  | CC1(C)SC(C2NC(=O)C(c3ccc(O)cc3)NC2=O)NC1C(=O)O (centres unmarked) [HP2, amoxicillin piperazine-2,5-dione] | 
